In PMC7614687, “Modulation of the substrate specificity of the kinase PDK1 by distinct conformations of the full-length protein*” (Science signaling, 2023):
Values joined by “and” are separate entries in the source; they are usually repeats but may differ in a detail not shown here. Equal values may be shown once. “Also recorded” adds a separate entry of the source. Read-outs that look alike come from different tables or passages of the source.

Experiments:
[1] = target: T1, His-PDK1_1-556 and GST-PDK1_360-556 (Homo sapiens, UniProt O15530); test: AlphaScreen PDK1 dimerization assay His-PDK1_1-556 / GST-PDK1_360-556; assay type: binding
T1 construct: made in house; host or cells: Sf9 insect cells (His-PDK1_1-556); HEK293 cells (GST-PDK1_360-556)
T1 sequence (O15530 1-556): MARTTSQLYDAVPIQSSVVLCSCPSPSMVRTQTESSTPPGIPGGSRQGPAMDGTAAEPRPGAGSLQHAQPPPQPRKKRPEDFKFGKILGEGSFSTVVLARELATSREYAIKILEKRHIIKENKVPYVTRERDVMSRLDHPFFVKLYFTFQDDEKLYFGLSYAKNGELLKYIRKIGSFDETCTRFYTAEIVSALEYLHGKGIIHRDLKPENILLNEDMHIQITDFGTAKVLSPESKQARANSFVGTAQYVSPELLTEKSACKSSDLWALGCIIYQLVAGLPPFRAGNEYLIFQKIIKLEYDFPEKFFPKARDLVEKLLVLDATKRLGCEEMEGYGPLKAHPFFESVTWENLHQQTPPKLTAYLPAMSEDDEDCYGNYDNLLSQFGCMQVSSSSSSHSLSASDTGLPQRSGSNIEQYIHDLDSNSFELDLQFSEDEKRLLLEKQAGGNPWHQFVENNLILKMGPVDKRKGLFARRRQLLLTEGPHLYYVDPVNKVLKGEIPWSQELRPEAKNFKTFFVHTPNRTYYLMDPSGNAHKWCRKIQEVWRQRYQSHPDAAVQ
Experimental: The AlphaScreen® assay was performed following the general guidelines from the manufacturer (Perkin Elmer) ([29]). In short, the assay was performed in a final volume of 25 μl in white 384-well microtiter plates (Greiner) in a standard buffer containing 50 mM Tris-HCl (pH 7.4), 100 mM NaCl, 2 mM DTT, 0.01% (v/v) Tween-20 and 0.1% (w/v) BSA, with the addition of 5 μl of beads (anti-GST coated acceptor beads and streptavidin-coated donor beads; nickel chelate-coated acceptor beads and streptavidin-coated donor beads; or nickel chelate-coated acceptor beads and GSH-coated donor beads, 20 μg/ml final concentrations for each bead type). AlphaScreen assays for His-tagged proteins and GST-fusion proteins were performed using nickel chelate-coated acceptor beads and GSH-coated donor beads; alphascreen assays for His-tagged proteins and biotinylated molecules were performed using nickel chelate-coated acceptor beads and streptavidin-coated donor beads; alphascreen assays for GST-fusion proteins and biotinylated molecules were performed using anti-GST coated acceptor beads and streptavidin-coated donor beads (Perkin Elmer).
The conditions for each AlphaScreen assay were identified in cross-titration experiments for each interaction to choose the ideal pair of concentrations within the linear range of the interactions. […] His-PDK1 and GST-fusion protein in the presence or absence of the different compounds were incubated in the dark for 60 min at room temperature and the emission of light from the acceptor beads was measured in an EnVision reader (Perkin Elmer) or Spark plate reader (Tecan). […]

PDK1_1-556 = target: T2, PDK1_1-556 (Homo sapiens, UniProt O15530); test: Differential scanning fluorimetry, thermal stability of PDK1_1-556; assay type: binding; details: PDK1 1 μM
T2 construct: effect of HYG8 on the thermal stability (ΔTm) of PDK1_1-556 (H) and PDK1_50-359 (I); His (N); made in house; host or cells: Sf9 insect cells (baculovirus)
T2 sequence (O15530 1-556): T1 sequence (O15530 1-556)
Experimental: The thermal stability of PDK1 was assessed by monitoring the unfolding of PDK1 by the increase in the fluorescence of SYPRO Orange (Invitrogen) using a real-time PCR device (StepOnePlus, Applied Biosystems and BioRad CFX96) following a previously described protocol ([70]). The reactions were performed in a final volume of 10 μl in white 96-well PCR microtiter plates (Greiner) and contained 1 μM PDK1, 10 mM HEPES (pH 7.5), 150 mM NaCl, 1/1000 SYPRO Orange and 1 mM dithiothreitol. For valsartan, the assay buffer was modified to exclude NaCl. PIFtide or compounds (at a final DMSO concentration of 1%) were added to this reaction mixture. The temperature gradient was performed in steps of 0.3 °C in the range from 25 to 70 °C. To calculate the Tm values, data were exported to GraphPad Prism and curves fitted to a Boltzmann sigmoidal equation with an acceptable confidence interval of 95%. Statistical analysis was performed with Infostat software (http://www.infostat.com.ar) and GraphPad Prism by first verifying a normal distribution of pooled residuals (Shapiro-Wilks test) and homogeneity of variance (F test), and then performing a one-way ANOVA followed by the post hoc comparisons test indicated in each figure legend.

PDK1 = target: T3, PDK1 (Homo sapiens, UniProt O15530); test: Thermo Fisher "PDK1 Direct" assay (peptide Ser/Thr 07, FRET readout); assay type: biochemical; details: for times less potent inhibitors than HYG7, HYG8 and HYG14: PDK1 Direct assay IC50 comparison
T3 sequence (O15530 1-556): T1 sequence (O15530 1-556)

[2] = absence of PIFtide, read-out: IC50 (nM), displacement of His-PDK1_1-556 interaction with GST-PDK1_360-556
[3] = with PIFtide, read-out: IC50 (nM), displacement of His-PDK1_1-556 interaction with GST-PDK1_360-556 with PIFtide
[4] = replicate point 1, read-out: % Inhibition Point 1
[5] = replicate point 2, read-out: % Inhibition Point 2
[6] = single point, N=2, read-out: Inhibition at 1 μM (%)

Row | Compound | IC50 [1, 2] | IC50 [1, 3] | Tm (°C), temperature stabilization of PDK1_1-556 (PDK1_1-556; compound 1 µM) | Tm (°C), temperature stabilization of PDK1_1-556 (PDK1_1-556; compound 20 µM) | inhibition at 1 µM (PDK1; [4]) | inhibition at 1 µM (PDK1; [5]) | inhibition at 1 µM (PDK1; [6]) | Hill slope, PDK1 direct (PDK1; 10-point titration) | IC50 (PDK1; 10-point titration) | effect on PDK1 dimer formation [1] | other results
1 | CC(C)C(NCc1ccc(-c2ccccc2-c2nnn[nH]2)cc1)C(=O)O (centres unmarked) [Des(oxopentyl) valsartan, des(oxopentyl)valsartan, reference compound] | – | – | – | – | – | – | – | – | – | did not disrupt PDK1 dimers | –
2 | CNc1nc(-c2ccc3c(N)n[nH]c3c2)cc(N2C[C@@H](C(=O)NC3CCCCC3)CC[C@H]2C)n1 [GSK2334470] | – | – | – | – | – | – | – | – | – | None of these compounds affected the dimerization | –
3 | O=C(CC(c1ccccc1)C(C(=O)O)C(=O)O)c1ccc(C(F)(F)F)cc1 (centres unmarked) [PS210] | – | – | – | – | – | – | – | – | – | None of these compounds affected the dimerization | –
4 | CN[C@@H]1C[C@H]2O[C@@](C)([C@@H]1OC)n1c3ccccc3c3c4c(c5c6ccccc6n2c5c31)C(=O)N[C@H]4O [UCN01] | – | – | – | – | – | – | – | – | – | do not affect the formation of PDK1 dimers | –
5 | Nc1ncnc2[nH]cnc12 [adenine] | – | – | – | – | – | – | – | – | – | do not affect the formation of PDK1 dimers | –
6 | REPRILSEEEQEMFRDFDYIADWS [PIFtide, peptide derived from the PRK2 HM (a PDK1 substrate)] | – | – | – | – | – | – | – | – | – | no effect on dimer formation | –

Continued, in another order:

Row | IC50 [1, 2] | IC50 [1, 3] | Tm (°C), temperature stabilization of PDK1_1-556 (PDK1_1-556; compound 1 µM) | Tm (°C), temperature stabilization of PDK1_1-556 (PDK1_1-556; compound 20 µM) | inhibition at 1 µM (PDK1; [4]) | inhibition at 1 µM (PDK1; [5]) | inhibition at 1 µM (PDK1; [6]) | Hill slope, PDK1 direct (PDK1; 10-point titration) | IC50 (PDK1; 10-point titration) | Compound | effect on PDK1 dimer formation [1] | other results
7 | 27 nM | 17.9 nM | 7.8 °C | 9.9 °C | 53% | 64% | 59% | 1.11 | 449 nM | CC(=O)O[C@H]1[C@@H](OP(=O)(O)O)[C@H](OP(=O)(O)O)[C@@H](OP(=O)(O)O)[C@H](OP(=O)(O)O)[C@H]1OP(=O)(O)O [HYG6, 2-O-acetyl-IP5] | – | times less potent inhibitors than HYG7, HYG8 and HYG14 (PDK1): 15 to 36 times
8 | 22.6 nM | 22.7 nM | 12.6 °C and 11-15 °C | 14.5 °C and 13-16 °C | 101% | 99% | 100% | 1.39 | 29 nM | CCCC(=O)O[C@H]1[C@@H](OP(=O)(O)O)[C@H](OP(=O)(O)O)[C@@H](OP(=O)(O)O)[C@H](OP(=O)(O)O)[C@H]1OP(=O)(O)O [HYG7, 2-O-butyryl-IP5] | – | –
9 | 67 nM | 59.4 nM | 5.3 °C | 11.9 °C | 63% | 69% | 66% | 1.33 | 577 nM | O=P(O)(O)O[C@@H]1[C@@H](OP(=O)(O)O)[C@H](OP(=O)(O)O)[C@H](O)[C@H](OP(=O)(O)O)[C@H]1OP(=O)(O)O [IP5, inositol-1,3,4,5,6-pentaphosphate, reference compound] | – | times less potent inhibitors than HYG7, HYG8 and HYG14 (PDK1): 15 to 36 times
10 | – | – | 6.2 °C | 9.0 °C | 8% | 7% | 8% | –2.18 | > 10000 nM | O=P(O)(O)O[C@H]1[C@H](OP(=O)(O)O)[C@@H](OP(=O)(O)O)[C@H](OP(=O)(O)O)[C@@H](OP(=O)(O)O)[C@H]1OP(=O)(O)O [IP6, inositol hexakisphosphate, reference compound] | – | IC50 (nM), displacement of His-PDK1_1-556 interaction with GST-PDK1_360-556 ([1]; absence of PIFtide): Does not reach complete displacement; also recorded: no displacement; IC50 (nM), displacement of His-PDK1_1-556 interaction with GST-PDK1_360-556 with PIFtide ([1]; with PIFtide): Does not reach complete displacement; IC50 (nM), PDK1 direct (PDK1; 10-point titration): inactive
11 | 124 nM | 140 nM | 4.7 °C | 7.3 °C | -8% | -10% | – | – | – | O=P(O)(O)O[C@@H]1[C@@H](OP(=O)(O)O)[C@H](OP(=O)(O)O)[C@@H](O)[C@H](OP(=O)(O)O)[C@H]1OP(=O)(O)O [scyllo-IP5, reference compound] | – | Inhibition at 1 μM (%) (PDK1; single point, N=2): -9%; Inhibition at 1 μM (%) (PDK1; single point, N=2, listed as Scyllo-IP5, 1 µM): ≤ 10%
